Measurements reported in patent US20260130933A1, “PHARMACEUTICAL COMPOSITION FOR PREVENTION OR TREATMENT OF NEPHROPATHY AND/OR DIABETES MELLITUS, COMPRISING ENAVOGLIFLOZIN” (DAEWOONG PHARMACEUTICAL CO., LTD., priority 2022, published 2026).

Experiment: Example 2: phase 3 trial, enavogliflozin 0.3 mg vs dapagliflozin 10 mg once a day for 24 weeks added to metformin in patients with type 2 diabetes (same efficacy, exploratory and safety endpoints)
Assay type: in vivo, human
Procedure: Subjects who met the inclusion/exclusion criteria were administered a placebo of the clinical trial drug under single-blind (subject blinding) conditions during a 2-week run-in period while continuing to receive metformin. […] The randomized subjects were administered two tablets of the clinical trial drug for each administration group once a day, and then visited the institution at weeks 6, 12, 18, and 24 during the 24-week administration period to conduct efficacy and safety evaluations.
• 1. Change in HbA1c at week 24 after administration of clinical trial drug compared to Visit 2 (randomization)
• 1. Change in HbA1c at each time point of weeks 6, 12, and 18 after administration of clinical trial drug compared to Visit 2 (randomization) • 2. Change in FPG at each time point of weeks 6, 12, 18, and 24 after administration of clinical trial drug compared to Visit 2 (randomization) • 3. Proportion of subjects achieving HbA1c<7% at each time point of weeks 6, 12, 18, and 24 after administration of clinical trial drug • 4. Proportion of subjects achieving HbA1c<6.5% at each time point of weeks 6, 12, 18, and 24 after administration of clinical trial drug • 5. Proportion of subjects achieving therapeutic response (HbA1c change (HbA1c at Visit 2-HbA1c at each evaluation time point)>0.5% or HbA1c<7% at each evaluation time point compared to Visit 2 (randomization)) at each time point of weeks 6, 12, 18 and 24 after administration of clinical trial drug
• 1. Change in fasting c-peptide at each time point of weeks 6, 12, 18, and 24 after administration of clinical trial drug compared to Visit 2 (randomization) • 2. Change in body weight at each time point of weeks 6, 12, 18, and 24 after administration of clinical trial drug compared to Visit 2 (randomization) • 3. Change in fasting lipid concentration (total cholesterol, LDL-C, HDL-C, and triglycerides) at each time point of weeks 6, 12, 18, and 24 after administration of clinical trial drug compared to Visit 2 (randomization) • 4. Changes in systolic or diastolic blood pressure at each time point of weeks 6, 12, 18, and 24 after administration of clinical trial drug compared to Visit 2 (randomization) • 5. Changes in β-cell function and insulin resistance measured by HOMA-β and HOMA-IR at each time point of weeks 6, 12, 18, and 24 after administration of clinical trial drug compared to Visit 2 (randomization) • 6. Changes in renal function-related indicators (UACR, UGCR) measured by UACR at each time point of weeks 6, 12, 18, and 24 after administration of clinical trial drug compared to Visit 2 (randomization) • 7. Changes in obesity-related indicators (adiponectin, leptin) at each time point of weeks 6, 12, 18, and 24 after administration of clinical trial drug compared to Visit 2 (randomization)

[1] = week 6, modified per-protocol set 1, enavogliflozin 0.3 mg, dapagliflozin 10 mg
[2] = week 6, per-protocol set, enavogliflozin 0.3 mg, dapagliflozin 10 mg
[3] = week 12, modified per-protocol set 1, enavogliflozin 0.3 mg, dapagliflozin 10 mg

Question: What does the source list for `CCOc1ccc(Cc2cc([C@@H]3O[C@H](CO)[C@@H](O)[C@H](O)[C@H]3O)ccc2Cl)cc1` [Dapagliflozin, reference compound]?
Answer: HOMA-IR, Median (Week 24, PPS): 1.82; HOMA-β change from baseline, ANCOVA LS mean (SE) (Week 24, PPS): 11.93; HOMA-β change from baseline, Mean (SD) (Week 24, PPS): 12.23; HOMA-β change from baseline, Median (Week 24, PPS): 5.30; HOMA-β, Mean (SD) (Week 24, PPS): 56.67; HOMA-β, Median (Week 24, PPS): 46.75; Leptin change from baseline, ANCOVA LS mean (SE) (Week 24, PPS): -1.28 ng/mL; Leptin change from baseline, Mean (SD) (Week 24, PPS): -1.31 ng/mL; Leptin change from baseline, Median (Week 24, PPS): -1.17 ng/mL; Leptin, Mean (SD) (Week 24, PPS): 10.37 ng/mL; Leptin, Median (Week 24, PPS): 6.69 ng/mL; UACR change from baseline, ANCOVA LS mean (SE) (Week 24, PPS): -17.37 g/kg; UACR change from baseline, Mean (SD) (Week 24, PPS): -25760 mg/kg; UACR change from baseline, Median (Week 24, PPS): -1.70 g/kg; UACR, Mean (SD) (Week 24, PPS): 31370 mg/kg; UACR, Median (Week 24, PPS): 11.10 g/kg; UGCR change from baseline, ANCOVA LS mean (SE) (Week 24, PPS): 44.94 mg/mg; UGCR change from baseline, Mean (SD) (Week 24, PPS): 43.01 mg/mg; UGCR change from baseline, Median (Week 24, PPS): 42.01 mg/mg; UGCR, Mean (SD) (Week 24, PPS): 45.27 mg/mg; UGCR, Median (Week 24, PPS): 43.81 mg/mg; HDL-C change from baseline, ANCOVA LS mean (SE) (Week 24, mPPS1): 3.19(0.66) mg/dL; HDL-C change from baseline, Mean (SD) (Week 24, mPPS1): 3.55(5.30) mg/dL; HDL-C change from baseline, Median (Week 24, mPPS1): 3.00 mg/dL; HDL-C, Mean (SD) (Week 24, mPPS1): 50.45(9.72) mg/dL; HDL-C, Median (Week 24, mPPS1): 50.00 mg/dL; LDL-C change from baseline, ANCOVA LS mean (SE) (Week 24, mPPS1): 0.93(1.98) mg/dL; LDL-C change from baseline, Mean (SD) (Week 24, mPPS1): 2.68(20.64) mg/dL; LDL-C change from baseline, Median (Week 24, mPPS1): 2.00 mg/dL; LDL-C, Mean (SD) (Week 24, mPPS1): 78.84(25.81) mg/dL; LDL-C, Median (Week 24, mPPS1): 76.00 mg/dL; Triglycerides change from baseline, ANCOVA LS mean (SE) (Week 24, mPPS1): −6.70(5.28) mg/dL; Triglycerides change from baseline, Mean (SD) (Week 24, mPPS1): −10.64(52.51) mg/dL; Triglycerides change from baseline, Median (Week 24, mPPS1): -7.00 mg/dL; Triglycerides, Mean (SD) (Week 24, mPPS1): 122.28(58.14) mg/dL; Triglycerides, Median (Week 24, mPPS1): 110.00 mg/dL; Diastolic blood pressure change from baseline, ANCOVA LS mean (SE) (Week 24, mPPS2): −4.26 mmHg; Diastolic blood pressure change from baseline, Mean (SD) (Week 24, mPPS2): −3.87 mmHg; Diastolic blood pressure change from baseline, Median (Week 24, mPPS2): −4.00 mmHg; Diastolic blood pressure, Mean (SD) (Week 24, mPPS2): 72.05 mmHg; Diastolic blood pressure, Median (Week 24, mPPS2): 71.00 mmHg; Systolic blood pressure change from baseline, ANCOVA LS mean (SE) (Week 24, mPPS2): −6.57(1.04) mmHg; Systolic blood pressure change from baseline, Mean (SD) (Week 24, mPPS2): −6.03(12.13) mmHg; Systolic blood pressure change from baseline, Median (Week 24, mPPS2): −7.00 mmHg; Systolic blood pressure, Mean (SD) (Week 24, mPPS2): 121.40(11.90) mmHg; Systolic blood pressure, Median (Week 24, mPPS2): 122.00 mmHg; FPG change from baseline, LS mean (SE) (week 6): −23.81(2.23) mg/dL; HOMA-IR change from baseline, LS mean (SE) (week 6): −1.31(0.15); HOMA-β change from baseline, LS mean (SE) (week 6): −1.79(5.59); HbA1c change from baseline, LS mean (SE) (week 6): −0.63(0.04) % p; LDL-C change from baseline, LS mean (SE) (week 6): 4.20(1.95) mg/dL; Subjects achieving HbA1c target of <7% (week 6): (51.69) %; Subjects achieving HbA1c<6.5% (week 6): 14.61%; Subjects achieving therapeutic response (HbA1c change >0.5% or HbA1c<7%) (week 6): 79.78%; UACR change from baseline, LS mean (SE) (week 6): 8.13(10.88) g/kg; UGCR change from baseline, LS mean (SE) (week 6): 50.10(2.80) mg/mg; diastolic blood pressure change from baseline, LS mean (SE) (week 6): −1.47(0.72) mmHg; fasting c-peptide change from baseline, LS mean (SE) (week 6): −0.07(0.02) ng/ml; leptin change from baseline, LS mean (SE) (week 6): −1.62(0.47) ng/mL; Subjects achieving HbA1c target of <7% (week 6, listed as dapagliflozin): 51.69%; Change from baseline in Total cholesterol, ANCOVA LS mean (SE) [1]: 6.87(2.27) mg/dL; Change from baseline in Total cholesterol, Mean (SD) [1]: 7.71(22.44) mg/dL; Change from baseline in total cholesterol, Median [1]: 7.00 mg/dL; fasting Total cholesterol, Mean (SD) [1]: 145.62(31.91) mg/dL; fasting Total cholesterol, Median [1]: 145.50 mg/dL; Change from baseline in FPG, ANCOVA LS mean (SE) [2]: -23.81 mg/dL; Change from baseline in FPG, Mean (SD) [2]: -24.90 mg/dL; Change from baseline in FPG, Median [2]: -24.00 mg/dL; Change from baseline in HbA1c, ANCOVA LS mean (SE) [2]: −0.63 % p; Change from baseline in HbA1c, Mean (SD) [2]: −0.58 % p; Change from baseline in HbA1c, Median [2]: −0.59 % p; Change from baseline in body weight, ANCOVA LS mean (SE) [2]: −1.61(0.21) kg; Change from baseline in body weight, Mean (SD) [2]: −1.60(1.25) kg; Change from baseline in body weight, Median [2]: -1.50 kg; Change from baseline in fasting c-peptide, ANCOVA LS mean (SE) [2]: −0.07(0.02) ng/mL; Change from baseline in fasting c-peptide, Mean (SD) [2]: −0.07(0.18) ng/mL; Change from baseline in fasting c-peptide, Median [2]: -0.07 ng/mL; FPG, Mean (SD) [2]: 124.37 mg/dL; FPG, Median [2]: 122.00 mg/dL; HbA1c, Mean (SD) [2]: 7.10%; HbA1c, Median [2]: 6.98%; Subjects achieving HbA1c target of <6.5%, (%) [2]: (14.61) %; Subjects achieving therapeutic glycemic response, (%) [2]: (79.78) %; body weight, Mean (SD) [2]: 68.88(11.86) kg; body weight, Median [2]: 66.90 kg; fasting c-peptide, Mean (SD) [2]: 0.66(0.20) ng/mL; fasting c-peptide, Median [2]: 0.63 ng/mL; FPG change from baseline, LS mean (SE) (week 12): −30.11(2.03) mg/dL; HOMA-IR change from baseline, LS mean (SE) (week 12): −1.60(0.17); HOMA-β change from baseline, LS mean (SE) (week 12): 8.75(3.15); HbA1c change from baseline, LS mean (SE) (week 12): −0.79(0.05) % p; LDL-C change from baseline, LS mean (SE) (week 12): 0.56(1.73) mg/dL; Subjects achieving HbA1c target of <7% (week 12): (63.64) %; Subjects achieving HbA1c<6.5% (week 12): 26.14%; Subjects achieving therapeutic response (HbA1c change >0.5% or HbA1c<7%) (week 12): 79.55%; UACR change from baseline, LS mean (SE) (week 12): −3.38(7.57) g/kg; UGCR change from baseline, LS mean (SE) (week 12): 45.14(2.66) mg/mg; diastolic blood pressure change from baseline, LS mean (SE) (week 12): −4.35(0.81) mmHg; fasting c-peptide change from baseline, LS mean (SE) (week 12): −0.09(0.02) ng/ml; leptin change from baseline, LS mean (SE) (week 12): −2.70(0.51) ng/mL; Subjects achieving HbA1c target of <7% (week 12, listed as dapagliflozin): 63.64%; Change from baseline in Total cholesterol, ANCOVA LS mean (SE) [3]: 4.25(2.04) mg/dL; Change from baseline in Total cholesterol, Mean (SD) [3]: 5.47(18.88) mg/dL; Change from baseline in total cholesterol, Median [3]: 5.00 mg/dL
